Assay results reported in patent US8148391B2 (Cephalon, Inc., priority 2006, dated 2012).
Where two headings read alike, the source gives them in different places. Values belong to the compound of their own block, whether it stands above or below them.

Tests used:
[1] = biological target: T1, c-Met (cytoplasmic domain) (Homo sapiens, UniProt P08581); test: c-Met Kinase Assay (same methods as for ALK, with modifications); format: biochemical
T1 construct: 10 ng/mL c-Met (cytoplasmic domain, Invitrogen Corporation #PV3143); purchased Invitrogen Corporation PV3143
T1 sequence (P08581 956-1390 limits assumed): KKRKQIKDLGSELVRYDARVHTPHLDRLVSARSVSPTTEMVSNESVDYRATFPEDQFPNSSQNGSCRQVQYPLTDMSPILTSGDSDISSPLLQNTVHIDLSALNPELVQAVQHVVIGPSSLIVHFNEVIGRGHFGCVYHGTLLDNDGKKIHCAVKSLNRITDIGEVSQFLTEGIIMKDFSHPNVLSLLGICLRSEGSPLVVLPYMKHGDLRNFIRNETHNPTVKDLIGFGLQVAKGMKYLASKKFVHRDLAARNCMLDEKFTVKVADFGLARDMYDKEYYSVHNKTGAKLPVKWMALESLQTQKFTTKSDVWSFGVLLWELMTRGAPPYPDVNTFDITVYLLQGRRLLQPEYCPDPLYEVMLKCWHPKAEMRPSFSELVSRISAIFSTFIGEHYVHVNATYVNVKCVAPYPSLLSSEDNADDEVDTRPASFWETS
Summary of the method: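 Wells were coated with 10 μg/mL phospholipase C-γ substrate in TBS, and reactions were started with 10 ng/mL c-Met cytoplasmic domain and run at 37° C for 15 minutes. Phosphorylated product was detected with Eu-N1-labeled PT66 antibody. IC50 values came from sigmoidal variable-slope fits of percent inhibition versus log compound concentration.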

[2] = biological target: T2, baculovirus-expressed ALK (Homo sapiens, UniProt Q9UM73); test: ALK Kinase Assay (ELISA-type, time-resolved fluorescence); format: biochemical
T2 construct: host or cells: baculovirus expression system
T2 sequence (Q9UM73 19-1620): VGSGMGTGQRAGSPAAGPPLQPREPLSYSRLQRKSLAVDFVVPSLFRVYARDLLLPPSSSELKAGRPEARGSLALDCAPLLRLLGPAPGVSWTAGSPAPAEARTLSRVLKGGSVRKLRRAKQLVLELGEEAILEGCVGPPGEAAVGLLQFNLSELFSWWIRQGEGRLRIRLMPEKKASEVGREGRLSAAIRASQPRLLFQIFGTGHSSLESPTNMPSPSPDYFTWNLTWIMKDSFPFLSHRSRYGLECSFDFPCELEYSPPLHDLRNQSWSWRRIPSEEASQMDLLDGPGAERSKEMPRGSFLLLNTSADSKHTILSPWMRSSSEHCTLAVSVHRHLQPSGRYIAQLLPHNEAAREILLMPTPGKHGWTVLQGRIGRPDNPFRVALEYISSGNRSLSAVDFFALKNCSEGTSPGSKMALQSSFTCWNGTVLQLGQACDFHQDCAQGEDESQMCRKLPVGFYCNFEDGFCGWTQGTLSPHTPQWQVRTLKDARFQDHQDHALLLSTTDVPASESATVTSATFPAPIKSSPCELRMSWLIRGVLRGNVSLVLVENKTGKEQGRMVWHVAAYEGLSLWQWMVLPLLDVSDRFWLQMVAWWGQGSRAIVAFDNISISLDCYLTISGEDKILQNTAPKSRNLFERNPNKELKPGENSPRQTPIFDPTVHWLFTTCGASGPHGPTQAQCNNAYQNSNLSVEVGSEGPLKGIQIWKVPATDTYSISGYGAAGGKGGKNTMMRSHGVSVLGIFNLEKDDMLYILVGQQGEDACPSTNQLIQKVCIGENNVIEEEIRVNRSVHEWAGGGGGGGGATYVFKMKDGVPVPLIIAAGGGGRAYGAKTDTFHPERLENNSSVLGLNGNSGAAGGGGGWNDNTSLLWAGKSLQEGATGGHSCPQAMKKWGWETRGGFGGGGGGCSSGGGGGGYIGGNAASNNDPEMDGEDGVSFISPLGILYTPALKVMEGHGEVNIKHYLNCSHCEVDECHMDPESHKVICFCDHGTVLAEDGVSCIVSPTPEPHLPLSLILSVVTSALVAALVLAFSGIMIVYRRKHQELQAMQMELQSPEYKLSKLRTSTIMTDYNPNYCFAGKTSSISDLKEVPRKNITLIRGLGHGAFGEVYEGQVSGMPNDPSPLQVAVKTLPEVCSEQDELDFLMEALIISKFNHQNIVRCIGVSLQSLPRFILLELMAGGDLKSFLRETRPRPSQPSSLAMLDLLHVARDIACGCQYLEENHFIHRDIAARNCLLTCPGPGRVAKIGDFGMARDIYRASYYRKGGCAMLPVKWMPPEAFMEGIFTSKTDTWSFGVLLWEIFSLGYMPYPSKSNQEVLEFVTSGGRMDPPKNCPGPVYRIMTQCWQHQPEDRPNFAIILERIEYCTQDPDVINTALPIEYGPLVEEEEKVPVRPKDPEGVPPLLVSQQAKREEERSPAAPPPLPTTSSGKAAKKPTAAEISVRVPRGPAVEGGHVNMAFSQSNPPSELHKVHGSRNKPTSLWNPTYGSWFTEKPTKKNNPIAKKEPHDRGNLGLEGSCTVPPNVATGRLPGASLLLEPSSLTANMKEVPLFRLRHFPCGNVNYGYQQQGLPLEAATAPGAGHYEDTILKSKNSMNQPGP
Summary of the method: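 Substrate coating: phospholipase C-γ, 10 μg/mL in TBS. Kinase step: 30 ng/ml ALK, 15 min, 37° C. Detection and analysis: Eu-N1 PT66 antibody, with IC50 fitted as a sigmoidal variable-slope dose-response curve.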

[3] = 1 μM ATP (Km level), read-out: cMet Activity (c-Met Kinase Inhibition, IC50)
[4] = 1 μM ATP (Km level), read-out: ALK Activity (ALK Kinase Inhibition, IC50)
[5] = 1 μM ATP (Km level), 10 ng/mL c-Met, read-out: cMet Activity (c-Met kinase inhibition, IC50 class)
[6] = 1 μM ATP (Km level), 30 ng/ml ALK, 37° C., 15 minutes, read-out: ALK Activity (ALK kinase inhibition, IC50 class)
[7] = c-Met kinase inhibition, 1 μM ATP (Km level), read-out: cMet Activity
[8] = ALK kinase inhibition, 1 μM ATP (Km level), read-out: ALK Activity
[9] = c-Met kinase inhibition, 1 μM ATP, read-out: cMet Activity
[10] = ALK kinase inhibition, 1 μM ATP, read-out: ALK Activity

SMILES: COc1cc2c(cc1Nc1ncc(Cl)c(Nc3ccc(N4CCN(C)CC4)cc3OC)n1)CCN(CCS(C)(=O)=O)CC2 [Example 771, 5-Chloro-N*2*-[3-(2-methanesulfonyl-ethyl)-8-methoxy-2,3,4,5-tetrahydro-1H-benzo[d]azepin-7-yl]-N*4*-[2-methoxy-4-(4-methyl-piperazin-1-yl)-phenyl]-pyrimidine-2,4-diamine]
- IC50 [1, 3]: > 10000 nM
- IC50 [2, 4]: < 100 nM

SMILES: COc1cc2c(cc1Nc1ncc(Cl)c(Nc3ccc[nH]c3=O)n1)CCN(CC(=O)N(C)C)CC2 [Example 1186, 2-{7-[5-Chloro-4-(2-oxo-1,2-dihydro-pyridin-3-ylamino)-pyrimidin-2-ylamino]-8-methoxy-1,2,4,5-tetrahydro-benzo[d]azepin-3-yl}-N,N-dimethyl-acetamide]
- IC50 [1, 5]: > 10000 nM
- IC50 [2, 6]: < 100 nM

SMILES: CCNC(=O)c1ccccc1Nc1nc(Nc2cc3c(cc2OC)CCN(CC(=O)N(C)C)CC3)ncc1Cl [Example 262, 2-[5-Chloro-2-(3-dimethylcarbamoylmethyl-8-methoxy-2,3,4,5-tetrahydro-1H-benzo[d]azepin-7-ylamino)-pyrimidin-4-ylamino]-N-ethyl-benzamide]
- IC50 [1, 7]: 1000 to 10000 nM
- IC50 [2, 8]: < 100 nM

SMILES: CCN1CCN(CC)c2cc(Nc3ncc(Cl)c(Nc4ccccc4-c4nccn4C)n3)ccc2C1 [Example 715, 5-Chloro-N*2*-(1,4-diethyl-2,3,4,5-tetrahydro-1H-benzo[e][1,4]diazepin-8-yl)-N*4*-[2-(1-methyl-1H-imidazol-2-yl)-phenyl]-pyrimidine-2,4-diamine]
- IC50 [1, 3]: 100 to 1000 nM
- IC50 [2, 4]: < 100 nM

SMILES: CNC(=O)c1cccc(Nc2nc(Nc3ccc4c(c3)C(C)(C)CCC(=O)N4C)ncc2Cl)c1 [Example 670, 3-[5-Chloro-2-(1,5,5-trimethyl-2-oxo-2,3,4,5-tetrahydro-1H-benzo[b]azepin-7-ylamino)-pyrimidin-4-ylamino]-N-methyl-benzamide]
- IC50 [1, 3]: 1000 to 10000 nM
- IC50 [2, 4]: < 100 nM

SMILES: C#CCNC(=O)c1cccc(F)c1Nc1nc(Nc2ccc3c(c2)N(C(C)C)CCCO3)ncc1Cl [Example 1733, 2-[5-Chloro-2-(9-isopropyl-6,7,8,9-tetrahydro-5-oxa-9-aza-benzocyclohepten-2-ylamino)-pyrimidin-4-ylamino]-3-fluoro-N-prop-2-ynyl-benzamide]
- IC50 [1, 9]: 100 to 1000 nM
- IC50 [2, 10]: < 100 nM

SMILES: COCCNC(=O)c1ccccc1Nc1nc(Nc2ccc3c(c2)CCN(CCOC)CC3)ncc1Cl [Example 1398, {5-Chloro-2-[3-(2-methoxy-ethyl)-2,3,4,5-tetrahydro-1H-benzo[d]azepin-7-ylamino]-pyrimidin-4-ylamino}-N-(2-methoxy-ethyl)-benzamide]
- IC50 [1, 5]: 1000 to 10000 nM
- IC50 [2, 6]: < 100 nM

SMILES: CCN1CCc2ccc(Nc3ncc(Cl)c(NC(C)CNS(C)(=O)=O)n3)cc2CC1 (stereo not drawn) [Example 302, N-{2-[5-Chloro-2-(3-ethyl-2,3,4,5-tetrahydro-1H-benzo[d]azepin-7-ylamino)-pyrimidin-4-ylamino]-propyl}-methanesulfonamide]
- IC50 [1, 7]: 1000 to 10000 nM
- IC50 [2, 8]: < 100 nM

SMILES: COCCOc1ccc(Nc2nc(Nc3cc4c(cc3OC)CCN(CC(=O)N(C)C)CC4)ncc2Cl)c(S(=O)(=O)C(C)C)c1 [Example 1189, 2-(7-{5-Chloro-4-[4-(2-methoxy-ethoxy)-2-(propane-2-sulfonyl)-phenylamino]-pyrimidin-2-ylamino}-8-methoxy-1,2,4,5-tetrahydro-benzo[d]azepin-3-yl)-N,N-dimethyl-acetamide]
- IC50 [1, 5]: > 10000 nM
- IC50 [2, 6]: < 100 nM

SMILES: CNC(=O)c1cccc(Cl)c1Nc1nc(Nc2ccc3c(c2)C(C)(C)NC(=O)CC3)ncc1Cl [Example 1834, 3-Chloro-2-(5-chloro-2-(1,1-dimethyl-3-oxo-2,3,4,5-tetrahydro-1H-benzo[c]azepin-8-ylamino)pyrimidin-4-ylamino)-N-methylbenzamide]
- IC50 [1, 9]: < 100 nM
- IC50 [2, 10]: < 100 nM

SMILES: CCN1C(=O)CNCc2cc(OC)c(Nc3ncc(Cl)c(Nc4ccccc4S(=O)(=O)C(C)C)n3)cc21 [Example 729, 8-{5-Chloro-4-[2-(propane-2-sulfonyl)-phenylamino]-pyrimidin-2-ylamino}-1-ethyl-7-methoxy-1,3,4,5-tetrahydro-benzo[e][1,4]diazepin-2-one]
- IC50 [1, 3]: 1000 to 10000 nM
- IC50 [2, 4]: < 100 nM

SMILES: CNC(=O)c1ccccc1Nc1nc(Nc2ccc3c(c2)CCCNC3=O)ncc1Cl [Example 11, 2-[5-Chloro-2-(1-oxo-2,3,4,5-tetrahydro-1H-benzo[c]azepin-7-ylamino)-pyrimidin-4-ylamino]-N-methyl-benzamide]
- IC50 [1, 7]: < 100 nM
- IC50 [2, 8]: < 100 nM

SMILES: CNC(=O)c1cccc(C)c1Nc1nc(Nc2ccc3c(c2)N(CCOC)C(=O)CCC3)ncc1Cl [Example 361, 2-{5-Chloro-2-[1-(2-methoxy-ethyl)-2-oxo-2,3,4,5-tetrahydro-1H-benzo[b]azepin-8-ylamino]-pyrimidin-4-ylamino}-3,N-dimethyl-benzamide]
- IC50 [1, 7]: < 100 nM
- IC50 [2, 8]: 1000 to 10000 nM

SMILES: CNC(=O)c1ccccc1Nc1nc(Nc2ccc3c(c2)CCCCN3C)ncc1Cl [Example 103, 2-[5-Chloro-2-(1-methyl-2,3,4,5-tetrahydro-1H-benzo[b]azepin-7-ylamino)-pyrimidin-4-ylamino]-N-methyl-benzamide]
- IC50 [1, 7]: < 100 nM
- IC50 [2, 8]: < 100 nM

SMILES: C#CCN1CCc2ccc(Nc3ncc(Cl)c(N[C@H]4[C@@H](C(N)=O)[C@@H]5C=C[C@H]4C5)n3)cc2CC1 (relative stereo) [Example 323, (2-exo, 3-exo)-3-[5-Chloro-2-(3-prop-2-ynyl-2,3,4,5-tetrahydro-1H-benzo[d]azepin-7-ylamino)-pyrimidin-4-ylamino]-bicyclo[2.2.1]hept-5-ene-2-carboxylic acid amide]
- IC50 [1, 7]: 100 to 1000 nM
- IC50 [2, 8]: < 100 nM

Other lines, results leading:

- IC50 [1, 5]: 1000 to 10000 nM
- IC50 [2, 6]: 100 to 1000 nM
SMILES: COCCN1CCc2ccc(Nc3ncc(Cl)c(Nc4c(F)cc(F)cc4N4CCOCC4)n3)cc2CC1 [Example 1287, 5-Chloro-N(4)-(2,4-difluoro-6-morpholin-4-yl-phenyl)-N(2)-[3-(2-methoxy-ethyl)-2,3,4,5-tetrahydro-1H-3-benzazepin-7-yl]-pyrimidine-2,4-diamine]

- IC50 [1, 5]: > 10000 nM
- IC50 [2, 6]: 100 to 1000 nM
SMILES: COc1ccc2c(c1Nc1ncc(Cl)c(N[C@@H]3CCCC[C@H]3NS(C)(=O)=O)n1)CCC(N1CCOCC1)CC2 (stereo partly drawn) [Example 1070, N-{(1R,2R)-2-[5-Chloro-2-(2-methoxy-7-morpholin-4-yl-6,7,8,9-tetrahydro-5H-benzocyclohepten-1-ylamino)-pyrimidin-4-ylamino]-cyclohexyl}-methanesulfonamide]

- IC50 [1, 9]: 1000 to 10000 nM
- IC50 [2, 10]: < 100 nM
SMILES: COc1cc2c(cc1Nc1ncc(Cl)c(Nc3ccccc3S(=O)(=O)N(C)C)n1)CCN(CCN1CCOCC1)CC2 [Example 1522, 2-{5-Chloro-2-[8-methoxy-3-(2-morpholin-4-yl-ethyl)-2,3,4,5-tetrahydro-1H-3-benzazepin-7-ylamino]-pyrimidin-4-ylamino}-N,N-dimethyl-benzenesulfonamide]

- IC50 [1, 7]: 1000 to 10000 nM
- IC50 [2, 8]: 100 to 1000 nM
SMILES: CC(C)N1CC2CC(C1)c1cc(Nc3ncc(Cl)c(N[C@@H]4CCCC[C@H]4NS(C)(=O)=O)n3)ccc12 (stereo partly drawn) [Example 165, N-{(1R,2R)-2-[5-Chloro-2-(10-isopropyl-10-aza-tricyclo[6.3.1.0*2,7*]dodeca-2,4,6-trien-4-ylamino)-pyrimidin-4-ylamino]-cyclohexyl}-methanesulfonamide]

- IC50 [1, 3]: > 10000 nM
- IC50 [2, 4]: < 100 nM
SMILES: COc1cc2c(cc1Nc1ncc(Cl)c(Nc3ccc(N4CCOCC4)c(C)c3)n1)CCN(CC(=O)N(C)C)CC2 [Example 796, 2-{7-[5-Chloro-4-(3-methyl-4-morpholin-4-yl-phenylamino)-pyrimidin-2-ylamino]-8-methoxy-1,2,4,5-tetrahydro-benzo[d]azepin-3-yl}-N,N-dimethyl-acetamide]

- IC50 [1, 7]: 1000 to 10000 nM
- IC50 [2, 8]: 100 to 1000 nM
SMILES: CCN1CCc2ccc(Nc3ncc(Cl)c(NCCNS(C)(=O)=O)n3)cc2CC1 [Example 298, N-{2-[5-Chloro-2-(3-ethyl-2,3,4,5-tetrahydro-1H-benzo[d]azepin-7-ylamino)-pyrimidin-4-ylamino]-ethyl}-methanesulfonamide]

- IC50 [1, 7]: > 10000 nM
- IC50 [2, 8]: < 100 nM
SMILES: CCN1C(=O)CCCc2c1ccc(Nc1ncc(Cl)c(NC3C4CCC(C4)C3C(N)=O)n1)c2OC (stereo not drawn) [Example 129, (2-exo, 3-exo)-3-[5-Chloro-2-(1-ethyl-6-methoxy-2-oxo-2,3,4,5-tetrahydro-1H-benzo[b]azepin-7-ylamino)-pyrimidin-4-ylamino]-bicyclo[2.2.1]heptane-2-carboxylic acid amide]

- IC50 [1, 3]: 100 to 1000 nM
- IC50 [2, 4]: < 100 nM
SMILES: NC(=O)C1C2C=CC(C2)C1Nc1nc(Nc2ccc3c(c2)CCC(N2CCOCC2)CC3)ncc1Cl (stereo not drawn) [Example 867, 3-[5-Chloro-2-(7-morpholin-4-yl-6,7,8,9-tetrahydro-5H-benzocyclohepten-2-ylamino)-pyrimidin-4-ylamino]-bicyclo[2.2.1]hept-5-ene-2-carboxylic acid amide]

- IC50 [1, 5]: > 10000 nM
- IC50 [2, 6]: 100 to 1000 nM
SMILES: COc1ccc2c(c1Nc1ncc(Cl)c(Nc3ccccc3S(=O)(=O)N(C)C)n1)CCC(NCC(F)F)CC2 (stereo not drawn) [Example 1077, 2-{5-Chloro-2-[7-(2,2-difluoro-ethylamino)-2-methoxy-6,7,8,9-tetrahydro-5H-benzocyclohepten-1-ylamino]-pyrimidin-4-ylamino}-N,N-dimethyl-benzenesulfonamide]
